How the values were obtained:
Assay in all cases: combination Emax (second highest fraction inhibited in the dose matrix, 72 h); higher = more inhibition; extreme values may be limits of the assay
[1] = system: PWR-1E (Non-Cancerous)
Method in brief: (§1)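 Cell lines grown in DMEM/F12 or RPMI with 10% FBS were plated in 1536-well plates and held 24 hours at 37°C, 5% CO2 before 72 hours of exposure to two-drug dose matrices, with DMSO typically at 0.2%. CellTiter-Glo 2.0 luminescence gave viability, which was converted to inhibition. Vehicle wells were set to 0 and blank wells to 1. Combination Emax is the second-highest inhibition in the matrix, and Bliss excess is the observed combination effect minus the expected EA + EB − EA·EB, where EA and EB are the single-agent effects.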

[2] = system: Hs-766T (Pancreatic Carcinoma)
Method in brief: as §1

[3] = system: TGW (Neuroblastoma)
Method in brief: as §1

[4] = system: TK10 (Kidney Carcinoma)
Method in brief: as §1

[5] = system: SCC-15 (Oral Cavity Carcinoma)
Method in brief: as §1

[6] = system: OVCAR-4 (Ovarian Carcinoma)
Method in brief: as §1

[7] = system: Ca9-22 (Head and Neck Carcinoma)
Method in brief: as §1

[8] = system: YH-13 (Glioblastoma)
Method in brief: as §1

[9] = system: SU8686 (Pancreatic Carcinoma)
Method in brief: as §1

[10] = system: EFM-19 (Breast Carcinoma)
Method in brief: as §1

[11] = system: KARPAS-299 (T-Cell Non-Hodgkin's Lymphoma)
Method in brief: as §1

[12] = system: NCI-H358 (Lung Adenocarcinoma)
Method in brief: as §1

[13] = system: EoL-1-cell (Acute Myeloid Leukemia)
Method in brief: as §1

[14] = system: PANC-04-03 (Pancreatic Carcinoma)
Method in brief: as §1

[15] = system: HSC-4 (Oral Cavity Carcinoma)
Method in brief: as §1

[16] = system: UACC-62 (Melanoma)
Method in brief: as §1

[17] = system: EW-24 (Ewing's Sarcoma)
Method in brief: as §1

[18] = system: D-263MG (Glioblastoma)
Method in brief: as §1

[19] = system: NUGC-3 (Gastric Carcinoma)
Method in brief: as §1

[20] = system: HOP-62 (Lung Adenocarcinoma)
Method in brief: as §1

Structure (SMILES)	combination Emax [1]	combination Emax [2]	combination Emax [3]	combination Emax [4]	combination Emax [5]	combination Emax [6]	combination Emax [7]	combination Emax [8]	combination Emax [9]	combination Emax [10]	combination Emax [11]	combination Emax [12]	combination Emax [13]	combination Emax [14]	combination Emax [15]	combination Emax [16]	combination Emax [17]	combination Emax [18]	combination Emax [19]	combination Emax [20]
COc1cccc(OCCCN)c1-c1cc(Nc2cnc(C#N)cn2)n[nH]1 [Prexasertib] + C=CCn1c(=O)c2cnc(Nc3ccc(N4CCN(C)CC4)cc3)nc2n1-c1cccc(C(C)(C)O)n1 [AZD1775] (first compound max 1 µM, partner max 1 µM)	0.975	0.694	0.999	0.661	0.638	0.866	1	0.858	0.531	0.62	0.978	0.769	0.998	0.627	0.641	0.798	0.7	0.888	0.873	0.627
Cn1cnc2c(F)c(Nc3ccc(Br)cc3Cl)c(C(=O)NOCCO)cc21 [Selumetinib] + CCN(CCO)CCCOc1ccc2c(Nc3cc(CC(=O)Nc4cccc(F)c4)[nH]n3)ncnc2c1 [AZD2811] (first compound max 10 µM, 7x7, partner max 1 µM)	0.579	0.515	0.0777	0.327	0.36	0.268	0.475	0.429	0.142	0.219	0.252	0.499	1	0.479	0.345	0.815	0.427	0.284	0.551	0.475
CCc1c2c(nc3ccc(O)cc13)-c1cc3c(c(=O)n1C2)COC(=O)[C@]3(O)CC [SN-38] + CN(C)CCCOc1ccc(-c2ccc3ncc4c(c3c2)n(C2CCOCC2)c(=O)n4C)cn1 [AZD0156] (first compound max 0.3 µM, 7x7, partner max 1 µM)	0.946	0.39	0.62	0.409	0.709	0.187	0.914	0.509	0.497	0.482	0.924	0.722	0.995	0.462	0.804	0.891	0.781	0.722	0.984	0.664
CN(C)CCCOc1ccc(-c2ccc3ncc4c(c3c2)n(C2CCOCC2)c(=O)n4C)cn1 [AZD0156] + C[C@@H]1COCCN1C2=NC(=NC(=C2)C3(CC3)[S@](=N)(=O)C)C4=C5C=CNC5=NC=C4 [AZD6738] (first compound max 1 µM, 7x7, partner max 10 µM)	0.911	0.607	0.833	0.695	0.446	0.697	0.925	0.578	0.365	0.345	0.953	0.656	0.987	0.615	0.685	0.555	0.552	0.857	0.727	0.546
COc1nnc2ccc(N3CCC(c4ccc(OCCN5CCN(C)C(=O)[C@H]5C)cc4)CC3)nn12 [AZD5153] + CC1(C)CCC(CN2CCN(c3ccc(C(=O)NS(=O)(=O)c4ccc(NCC5CCOCC5)c([N+](=O)[O-])c4)c(Oc4cnc5[nH]ccc5c4)c3)CC2)=C(c2ccc(Cl)cc2)C1 [Venetoclax] (first compound max 1 µM, 7x7, partner max 1 µM)	0.61	0.444	0.798	0.594	0.335	0.444	0.66	0.656	0.0794	0.359	0.781	0.345	1	0.445	0.0567	0.605	0.498	0.369	0.464	0.557
CCN(CCO)CCCOc1ccc2c(Nc3cc(CC(=O)Nc4cccc(F)c4)[nH]n3)ncnc2c1 [AZD2811] + C=CCn1c(=O)c2cnc(Nc3ccc(N4CCN(C)CC4)cc3)nc2n1-c1cccc(C(C)(C)O)n1 [AZD1775] (first compound max 1 µM, partner max 1 µM)	0.87	0.346	0.761	0.33	0.296	0.472	0.771	0.423	0.177	0.467	0.911	0.416	1	0.445	0.367	0.391	0.279	0.51	0.539	0.161
CC1(C)CCC(CN2CCN(c3ccc(C(=O)NS(=O)(=O)c4ccc(NCC5CCOCC5)c([N+](=O)[O-])c4)c(Oc4cnc5[nH]ccc5c4)c3)CC2)=C(c2ccc(Cl)cc2)C1 [Venetoclax] + C1CN(CCC1(C(=O)N[C@@H](CCO)C2=CC=C(C=C2)Cl)N)C3=NC=NC4=C3C=CN4 [Capivasertib] (first compound max 1 µM, 7x7, partner max 3 µM)	0.203	0.225	0.465	0.339	0.226	0.1	0.212	0.259	0.059	0.489	0.837	0.33	1	0.199	0.306	0.392	0.395	0.202	0.227	0.14
CC1(C)CCC(CN2CCN(c3ccc(C(=O)NS(=O)(=O)c4ccc(NCC5CCOCC5)c([N+](=O)[O-])c4)c(Oc4cnc5[nH]ccc5c4)c3)CC2)=C(c2ccc(Cl)cc2)C1 [Venetoclax] + CCN(CCO)CCCOc1ccc2c(Nc3cc(CC(=O)Nc4cccc(F)c4)[nH]n3)ncnc2c1 [AZD2811] (first compound max 1 µM, 7x7, partner max 1 µM)	0.455	0.291	0.568	0.16	0.295	0.333	0.236	0.576	0.158	0.541	0.818	0.276	1	0.196	0.203	0.28	0.457	0.323	0.298	0.342
C[C@@H]1COCCN1c1cc(C2([S@](C)(=N)=O)CC2)nc(-c2ccnc3[nH]ccc23)n1 [AZD6738] + O=C(c1cc(Cc2n[nH]c(=O)c3ccccc23)ccc1F)N1CCN(C(=O)C2CC2)CC1 [Olaparib] (first compound max 10 µM, 7x7, partner max 10 µM)	0.842	0.554	0.731	0.471	0.587	0.664	0.88	0.611	0.288	0.439	0.98	0.544	0.992	0.515	0.691	0.509	0.567	0.981	0.778	0.498
CC1(C)CCC(CN2CCN(c3ccc(C(=O)NS(=O)(=O)c4ccc(NCC5CCOCC5)c([N+](=O)[O-])c4)c(Oc4cnc5[nH]ccc5c4)c3)CC2)=C(c2ccc(Cl)cc2)C1 [Venetoclax] + C[C@@H](Nc1cc(F)cc(F)c1)c1cc(C(=O)N(C)C)cc2c(=O)cc(N3CCOCC3)oc12 [AZD8186] (first compound max 1 µM, 7x7, partner max 3 µM)	0.173	0.349	0.377	0.465	0.166	0.138	0.471	0.441	0.127	0.412	0.829	0.149	1	0.149	0.177	0.398	0.26	0.142	0.183	0.264
CC(=O)Nc1cccc(-n2c(=O)n(C3CC3)c(=O)c3c(Nc4ccc(I)cc4F)n(C)c(=O)c(C)c32)c1 [Trametinib] + Cc1nc(-c2cn3c(n2)-c2ccc(-c4cnn(C(C)(C)C(N)=O)c4)cc2OCC3)n(C(C)C)n1 [Taselisib] (first compound max 1 µM, 7x7, partner max 10 µM)	0.864	0.773	0.694	0.769	1	0.518	0.936	0.916	0.481	0.665	0.639	0.961	1	0.89	0.686	0.996	0.6	0.943	0.865	0.778
COc1nnc2ccc(N3CCC(c4ccc(OCCN5CCN(C)C(=O)[C@H]5C)cc4)CC3)nn12 [AZD5153] + C=CCn1c(=O)c2cnc(Nc3ccc(N4CCN(C)CC4)cc3)nc2n1-c1cccc(C(C)(C)O)n1 [AZD1775] (first compound max 1 µM, partner max 1 µM)	0.886	0.448	0.674	0.604	0.435	0.583	0.672	0.592	0.171	0.573	0.919	0.63	1	0.484	0.397	0.577	0.609	0.34	0.715	0.631

Reference: the supplement of paper PMC11061612
